Data reported in ChEMBL document CHEMBL4049391, “Vicinal diaryl azole-based urea derivatives as potential cholesterol lowering agents acting through inhibition of SOAT enzymes” (Eur J Med Chem, 2017).
Calls of active or inactive are those of the source. The rule behind the calls is not given here.

Key:
Rattus norvegicus [1] = experiment: Acute toxicity in Wistar rat assessed as change in body weight at 60 mg/kg, po administered as repeated dosing for 28 days; assay type: organism-based; conditions: in vivo, 672 h
Rattus norvegicus [2] = experiment: Acute toxicity in Wistar rat assessed as macroscopic lesions in liver at 2000 mg/kg, po administered as single dose measured up to 14 days; assay type: organism-based; conditions: in vivo, 336 h
Rattus norvegicus [3] = experiment: Acute toxicity in Wistar rat assessed as effect on fur color at 2000 mg/kg, po administered as single dose measured up to 14 days; assay type: organism-based; conditions: in vivo, 336 h
Rattus norvegicus [4] = experiment: Acute toxicity in Wistar rat assessed as effect on mucus of lungs at 2000 mg/kg, po administered as single dose measured up to 14 days; assay type: organism-based; conditions: in vivo, 336 h
Rattus norvegicus [5] = experiment: Acute toxicity in Wistar rat assessed as macroscopic lesions in spleen at 2000 mg/kg, po administered as single dose measured up to 14 days; assay type: organism-based; conditions: in vivo, 336 h
Rattus norvegicus [6] = experiment: Acute toxicity in Wistar rat assessed as changes in adrenal gland shape at 2000 mg/kg, po administered as single dose measured up to 14 days; assay type: organism-based; conditions: in vivo, 336 h
Rattus norvegicus [7] = experiment: Anti-atherosclerosis activity in po dosed high cholesterol diet-induced Wistar rat atherogenesis model assessed as reduction in serum total cholesterol level administered once daily measured after 4 weeks; assay type: functional, organism-based
Rattus norvegicus [8] = experiment: Toxicity in Wistar rat assessed as effect on body weight at 30 mg/kg, po administered once daily measured after 4 weeks (reference value: 290.3 +/- 8.1 g); assay type: organism-based; conditions: in vivo, 672 h
Rattus norvegicus [9] = experiment: Acute toxicity in Wistar rat assessed as effect on locomotion at 2000 mg/kg, po administered as single dose measured up to 14 days; assay type: organism-based; conditions: in vivo, 336 h
Rattus norvegicus [10] = experiment: Acute toxicity in Wistar rat assessed as effect on gastrointestinal tract at 2000 mg/kg, po administered as single dose measured up to 14 days; assay type: organism-based; conditions: in vivo, 336 h
Rattus norvegicus [11] = experiment: Anti-atherosclerosis activity in high cholesterol diet-induced Wistar rat atherogenesis model assessed as reduction in triglyceride level at 10 to 30 mg/kg, po administered once daily measured after 4 weeks; assay type: functional, organism-based
Rattus norvegicus [12] = experiment: Acute toxicity in Wistar rat assessed as changes in adrenal gland size at 2000 mg/kg, po administered as single dose measured up to 14 days; assay type: organism-based; conditions: in vivo, 336 h
Rattus norvegicus [13] = experiment: Anti-atherosclerosis activity in high cholesterol diet-induced Wistar rat atherogenesis model assessed as reduction in fatty streak formation in thoracic aorta at 30 mg/kg, po administered once daily measured after 4 weeks by Sudan red 4 staining based photographic method; assay type: functional, organism-based
Rattus norvegicus [14] = experiment: Acute toxicity in Wistar rat assessed as shrinkage of adrenal gland at 2000 mg/kg, po administered as single dose measured up to 14 days; assay type: organism-based; conditions: in vivo, 336 h
[15] = Acute toxicity in Wistar rat assessed as mortality administered orally as single dose measured up to 14 days; conditions: in vivo, po, read-out: CD50
Rattus norvegicus [16] = experiment: Acute toxicity in Wistar rat assessed as effect on water intake at 2000 mg/kg, po administered as single dose measured at 6 hrs post dose; assay type: organism-based; conditions: in vivo
Rattus norvegicus [17] = experiment: Anti-atherosclerosis activity in high cholesterol diet-induced Wistar rat atherogenesis model assessed as lipid accumulation lesion area in thoracic aorta at 30 mg/kg, po administered once daily measured after 4 weeks by Sudan red 4 staining based photographic method relative to control; assay type: functional
Rattus norvegicus [18] = experiment: Toxicity in Wistar rat assessed as adrenal toxicity at 10 to 30 mg/kg, po administered once daily measured after 4 weeks; assay type: organism-based; conditions: in vivo, 672 h
Rattus norvegicus [19] = experiment: Acute toxicity in Wistar rat assessed as macroscopic lesions in lung at 2000 mg/kg, po administered as single dose measured up to 14 days; assay type: organism-based; conditions: in vivo, 336 h
Rattus norvegicus [20] = experiment: Anti-atherosclerosis activity in high cholesterol diet-induced Wistar rat atherogenesis model assessed as atherogenic index at 10 mg/kg, po administered once daily measured after 4 weeks (reference value: 19.59 +/- 5.8); assay type: functional
Rattus norvegicus [21] = experiment: Acute toxicity in Wistar rat assessed as cutaneous xanthomatosis at 60 mg/kg, po administered as repeated dosing for 42 days; assay type: organism-based; conditions: in vivo, 1008 h
Rattus norvegicus [22] = experiment: Acute toxicity in Wistar rat assessed as effect on normal behavior at 60 mg/kg, po administered as repeated dosing for 28 days; assay type: organism-based; conditions: in vivo, 672 h
Rattus norvegicus [23] = experiment: Anti-atherosclerosis activity in po dosed high cholesterol diet-induced Wistar rat atherogenesis model assessed as increase in HDL-cholesterol level administered once daily measured after 4 weeks; assay type: functional, organism-based
Rattus norvegicus [24] = experiment: Anti-hypercholesterolemic activity in poloxamer-407-induced Wistar rat lipoprotein lipase inhibition model assessed as fold change in triglyceride level at 20 mg/kg administered as single dose via oral gavage pretreated for 4 hrs followed by poloxamer-407 induction measured over 24 hrs (reference value: 80); assay type: functional
Rattus norvegicus [25] = experiment: Anti-atherosclerosis activity in high cholesterol diet-induced Wistar rat atherogenesis model assessed as atherogenic index at 30 mg/kg, po administered once daily measured after 4 weeks (reference value: 19.59 +/- 5.8); assay type: functional
Rattus norvegicus [26] = experiment: Anti-atherosclerosis activity in high cholesterol diet-induced Wistar rat atherogenesis model assessed as reduction in VLDL-cholesterol level at 10 to 30 mg/kg, po administered once daily measured after 4 weeks; assay type: functional, organism-based
Rattus norvegicus [27] = experiment: Acute toxicity in Wistar rat assessed as macroscopic lesions in kidney at 2000 mg/kg, po administered as single dose measured up to 14 days; assay type: organism-based; conditions: in vivo, 336 h
Rattus norvegicus [28] = experiment: Acute toxicity in Wistar rat assessed as macroscopic lesions in brain at 2000 mg/kg, po administered as single dose measured up to 14 days; assay type: organism-based; conditions: in vivo, 336 h
Rattus norvegicus [29] = experiment: Acute toxicity in Wistar rat assessed as hematological changes at 60 mg/kg, po administered as repeated dosing for 28 days; assay type: organism-based; conditions: in vivo, 672 h
Rattus norvegicus [30] = experiment: Acute toxicity in Wistar rat assessed as macroscopic lesions in heart at 2000 mg/kg, po administered as single dose measured up to 14 days; assay type: organism-based; conditions: in vivo, 336 h
[31] = Inhibition of rat microsomal SOAT assessed as reduction in cholesteryl oleate formation from oleoyl co-enzyme A pretreated for 15 mins followed by oleoyl co-enzyme A addition after 10 mins by HPTLC method
Rattus norvegicus [32] = experiment: Acute toxicity in Wistar rat assessed as changes in eyes at 2000 mg/kg, po administered as single dose measured up to 14 days; assay type: organism-based; conditions: in vivo, 336 h
Rattus norvegicus [33] = experiment: Anti-atherosclerosis activity in high cholesterol diet-induced Wistar rat atherogenesis model assessed as reduction in LDL-cholesterol level at 30 mg/kg, po administered once daily measured after 4 weeks; assay type: functional, organism-based
Rattus norvegicus [34] = experiment: Anti-atherosclerosis activity in high cholesterol diet-induced Wistar rat atherogenesis model assessed as reduction in lumenal lipid plaque formation in aortic roots at 10 to 30 mg/kg, po administered once daily measured after 4 weeks by Sudan red 4 staining based photographic method; assay type: functional, organism-based
Rattus norvegicus [35] = experiment: Acute toxicity in Wistar rat assessed as effect on skin color at 2000 mg/kg, po administered as single dose measured up to 14 days; assay type: organism-based; conditions: in vivo, 336 h
Rattus norvegicus [36] = species on record: Rattus norvegicus; experiment: Inhibition of rat microsomal SOAT assessed as reduction in cholesteryl oleate formation from oleoyl co-enzyme A at 10 uM pretreated for 15 mins followed by oleoyl co-enzyme A addition measured after 10 mins by HPTLC method relative to control
Rattus norvegicus [37] = experiment: Anti-atherosclerosis activity in high cholesterol diet-induced Wistar rat atherogenesis model assessed as effect on serum total cholesterol level at 30 mg/kg, po administered once daily measured after 4 weeks; assay type: functional
Rattus norvegicus [38] = experiment: Acute toxicity in Wistar rat assessed as effect on food intake at 60 mg/kg, po administered as repeated dosing for 28 days; assay type: organism-based; conditions: in vivo, 672 h

For CCCCNC(=O)Nc1ccc(-c2sc(C)nc2-c2ccc(C)cc2)cc1, the Activity (Rattus norvegicus [1]) was “Non-Toxic”, the Activity (Rattus norvegicus [2]) was “Non-Toxic” and the Activity (Rattus norvegicus [3]) was “Non-Toxic”. The Activity (Rattus norvegicus [4]) was “Non-Toxic”, the Activity (Rattus norvegicus [5]) was “Non-Toxic” and the Activity (Rattus norvegicus [6]) was “Non-Toxic”. For the same compound, the Activity (Rattus norvegicus [7]) was “Dose-dependent effect”, the Activity (Rattus norvegicus [8]) was 299 g and the Activity (Rattus norvegicus [9]) was “Non-Toxic”. The Activity (Rattus norvegicus [10]) was “Non-Toxic”, the Activity (Rattus norvegicus [11]) was “inactive” and the Activity (Rattus norvegicus [12]) was “Non-Toxic”. For the same compound, the Activity (Rattus norvegicus [13]) was “Active”, the Activity (Rattus norvegicus [14]) was “Non-Toxic” and the LD50 at 336 h [15] was over 2000 mg/kg. For the same compound, the Activity (Rattus norvegicus [16]) was “Non-Toxic”, the “fold change (FC)” value (Rattus norvegicus [17]) was 3 and the Activity (Rattus norvegicus [18]) was “Non-Toxic”. The Activity (Rattus norvegicus [19]) was “Non-Toxic”, the Activity_index (Rattus norvegicus [20]) was 7.55 and the Activity (Rattus norvegicus [21]) was “Non-Toxic”. The Activity (Rattus norvegicus [22]) was “Non-Toxic”, the Activity (Rattus norvegicus [23]) was “Dose-dependent effect” and the “fold change (FC)” value (Rattus norvegicus [24]) was 20. The Activity_index (Rattus norvegicus [25]) was 1.82, the Activity (Rattus norvegicus [26]) was “inactive” and the Activity (Rattus norvegicus [27]) was “Non-Toxic”. The Activity (Rattus norvegicus [28]) was “Non-Toxic”, the Activity (Rattus norvegicus [29]) was “Non-Toxic” and the Activity (Rattus norvegicus [30]) was “Non-Toxic”. For the same compound, the IC50 [31] was 2430 nM, the pIC50 [31] was 5.614 and the Activity (Rattus norvegicus [32]) was “Non-Toxic”. The Activity (Rattus norvegicus [33]) was “Active”, the Activity (Rattus norvegicus [34]) was “Active” and the Activity (Rattus norvegicus [35]) was “Non-Toxic”. The inhibition (Rattus norvegicus [36]) was 64.9%, the Activity (Rattus norvegicus [37]) was 138 mg/dL and the Activity (Rattus norvegicus [38]) was “Non-Toxic”.
